Measured values taken from patent US20250346576A1, “KCNT1 INHIBITORS COMPRISING A PYRAZOLE CORE AND METHODS OF USE” (PRAXIS PRECISION MEDICINES, INC., priority 2022, published 2025).

Target: T1, KCNT1 (KNa1.1, Slack) (Homo sapiens, UniProt Q5JUK3)
T1 construct: expressed in transfected cells; host or cells: HEK-TREX (tetracycline inducible cell line)
T1 sequence (Q5JUK3 1-1230): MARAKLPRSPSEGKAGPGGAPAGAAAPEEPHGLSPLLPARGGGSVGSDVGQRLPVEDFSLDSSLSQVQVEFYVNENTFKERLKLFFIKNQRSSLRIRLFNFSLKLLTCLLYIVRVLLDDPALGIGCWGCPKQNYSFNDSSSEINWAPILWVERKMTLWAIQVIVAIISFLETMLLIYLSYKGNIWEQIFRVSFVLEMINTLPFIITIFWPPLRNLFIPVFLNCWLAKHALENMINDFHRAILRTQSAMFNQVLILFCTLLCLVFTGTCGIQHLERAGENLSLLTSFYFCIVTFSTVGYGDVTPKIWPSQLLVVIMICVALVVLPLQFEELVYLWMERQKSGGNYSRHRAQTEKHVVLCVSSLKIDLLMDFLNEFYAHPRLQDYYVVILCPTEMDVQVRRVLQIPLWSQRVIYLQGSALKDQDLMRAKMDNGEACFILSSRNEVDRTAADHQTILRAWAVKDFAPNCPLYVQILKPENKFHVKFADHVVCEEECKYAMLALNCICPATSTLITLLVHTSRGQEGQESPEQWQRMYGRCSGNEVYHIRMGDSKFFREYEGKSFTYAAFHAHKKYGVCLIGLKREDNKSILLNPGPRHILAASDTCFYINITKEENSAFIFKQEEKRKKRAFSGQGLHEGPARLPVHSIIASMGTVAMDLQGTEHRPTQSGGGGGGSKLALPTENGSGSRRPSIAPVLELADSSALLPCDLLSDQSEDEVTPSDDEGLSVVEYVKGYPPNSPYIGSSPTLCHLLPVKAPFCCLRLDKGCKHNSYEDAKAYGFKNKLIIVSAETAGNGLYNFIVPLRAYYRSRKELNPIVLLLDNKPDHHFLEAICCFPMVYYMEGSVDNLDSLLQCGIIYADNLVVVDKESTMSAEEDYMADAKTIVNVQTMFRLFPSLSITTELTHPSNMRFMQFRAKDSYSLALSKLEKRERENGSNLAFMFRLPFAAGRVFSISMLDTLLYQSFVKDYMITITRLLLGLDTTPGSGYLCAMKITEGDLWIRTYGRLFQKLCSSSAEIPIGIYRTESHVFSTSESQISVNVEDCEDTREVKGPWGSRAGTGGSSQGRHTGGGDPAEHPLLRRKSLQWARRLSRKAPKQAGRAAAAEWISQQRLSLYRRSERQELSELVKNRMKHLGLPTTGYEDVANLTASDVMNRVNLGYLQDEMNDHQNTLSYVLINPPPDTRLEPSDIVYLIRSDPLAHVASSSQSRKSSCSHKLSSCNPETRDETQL
Experiment: KCNT1 patch clamp assay (SyncroPatch 384PE, tetracycline inducible HEK-TREX cell line)
Format: cell-based
Settings: WT KCNT1, HEK-TREX cells, perforated patch, step from -80 mV to 0 mV, room temperature; read-out: WT (KCNT1 inhibition IC50)
Method: Inhibition of KCNT1 (KNa1.1, Slack) was evaluated using a tetracycline inducible cell line (HEK-TREX). Currents were recorded using the SyncroPatch 384PE automated, patch clamp system. Pulse generation and data collection were performed with PatchController384 V1.3.0 and DataController384 V1.2.1 (Nanion Technologies). The access resistance and apparent membrane capacitance were estimated using built-in protocols. Current was recorded in perforated patch mode (10 μM escin) from a population of cells. The cells were lifted, triturated, and resuspended at 800,000 cells/ml. The cells were allowed to recover in the cell hotel prior to experimentation. Currents were recorded at room temperature. The external solution contained the following (in mM): NaCl 105, NMDG 40, KCl 4, MgCl2 1, CaCl2 5, and HEPES 10 (pH=7.4, Osmolarity ˜300 mOsm). The extracellular solution was used as the wash, reference, and compound delivery solution. The internal solution contained the following (in mM): NaCl 70, KF 70, KCl 10, EGTA 5, HEPES 5, and Escin 0.01 (pH=7.2, Osmolarity ˜295 mOsm). Escin is made at a 5 mM stock in water, aliquoted, and stored at −20° C. The compound plate was created at 2× concentrated in the extracellular solution. The compound was diluted to 1:2 when added to the recording well. The amount of DMSO in the extracellular solution was held constant at the level used for the highest tested concentration. A holding potential of −80 mV with a 100 ms step to 0 mV was used. Mean current was measured during the step to 0 mV. […] The average mean current from 3 sweeps was calculated and the percent inhibition of each compound was calculated. The percent inhibition as a function of the compound concentration was fit with a Hill equation to derive IC50, slope, minimum parameters, and maximum parameters. If KCNT1 inhibition was less than 50% at the highest tested concentration or if an IC50 could not be calculated, then a percent inhibition was reported in place of the IC50.
In this table, “A” indicates IC50 of less than or equal to 1 μM; “B” indicates inhibition of between 1 μM to 20 μM; and “C” indicates inhibition of greater than or equal to 20 μM.

Structure (SMILES)	IC50 [µM]
Cn1nc(C(F)(F)F)cc1C(=O)NC(C)(C)c1cc(-c2ccnc(C(F)(F)F)c2)nn1C [Compound 1063, 1-methyl-N-(2-(1-methyl-3-(2-(trifluoromethyl)pyridin-4-yl)-1H-pyrazol-5-yl)propan-2-yl)-3-(trifluoromethyl)-1H-pyrazole-5-carboxamide]	≤ 1
Cn1nc(C(F)(F)F)cc1C(=O)NC1(c2cc(-c3ccnc(C(F)(F)F)c3)nn2C)CCC1 [Compound 1064, 1-methyl-N-(1-(1-methyl-3-(2-(trifluoromethyl)pyridin-4-yl)-1H-pyrazol-5-yl)cyclobutyl)-3-(trifluoromethyl)-1H-pyrazole-5-carboxamide]	≤ 1
